According to PMC9388626, “STUB1 is an intracellular checkpoint for interferon gamma sensing” (Scientific Reports, 2022):

Tests used:
MCF7 cells = experiment: Lumit immunoassay, phospho-Tyr701-STAT1; format: cell-based, human; settings: MCF7, PTPN2 or STUB1 loss, 30 min
Method: Parental and CRISPR-edited tumour cells were seeded in a cell density of 12,500 (DU145), 15,000 (PC-3), or 30,000 (MCF7) per well in 384-well plate (Greiner Bio-One, #781080) filled with 25 µl culture media + 10% FBS. After 20–24 h incubation, the cells were treated with recombinant human IFNγ (R&D Systems, #285-IF-100) by adding an equal volume of the complete culture media containing the cytokine. After 30 min of stimulation, the culture media were removed by gentle spin using Blue Washer (BlueCatBio). Lumit immunoassay (Promega, #W1202) was performed according to manufacturer’s instrutions. The assay buffer was supplemented with Halt protease and phosphatase inhibitor cocktail (Thermo Scientific, #78443). The cells were lyzed with 12 µl per well of lysis solution (0.02% digitonin) for 20 min. The cell lystates were probed for 90 min with 12 µl of mixture of primary antibodies, which include anti-STAT1 rabbit antibody (Cell Signaling Technology, #14994), anti-pSTAT1 (Tyr701) mouse antibody (Abcam, ab29045), Lumit anti-mouse antibody-LgBiT (Promega) and Lumit anti-rabbit antibody-SmBiT (Promega). Final concentration of each antibody is 0.15 µg ml^−1. After 2 min incubation in the presence of the Lumit detection reagent (6 µl), the luminescence signals were detected by Infinite M1000 PRO (Tecan).

B16-F10 cells [1] = experiment: Gene expression profiling with NanoString PanCancer IO 360; format: cell-based, murine; settings: Stub1-null B16-F10, 0.03 ng ml^−1 IFNγ, 6 h or 24 h
Method: After overnight incubation, the culture media were replaced with fresh media (DMEM + 10% FBS) supplemented with 0.03 ng ml^−1 of recombinant mouse IFNγ (R&D Systems, #485-MI-100). Total RNA from untreated cells (24 h) and IFNγ-treated cells (6 or 24 h) were extracted with RNeasy plus mini kit (Qiagen, 74134) according to manufacturer’s protocol. An input of 150 ng RNA from each sample was mixed with the NanoString reporter and capture probes (nCounter Mouse PanCancer IO 360, # XT-CSPS-MIO360-12), and incubated at 65 °C for 20 h. The hybridized samples were processed on the nCounter prep station, and the resulting cartridge was scanned by the nCounter digital analyzer using 555 fields of view. Raw count data were evaluated for quality control and normalized with 19 housekeeping genes using nSolver 4.0 software (Supplementary Table S3). Tlk2 was excluded from the housekeeping gene due to weak expression (RNA counts < 80). […] Weakly expressed genes, where the normalized RNA counts were consistently less than 80 in all samples, were excluded from fold change analysis, resulting in an evaluable set of 493 out of 750 genes (Supplementary Fig. 4a). As an overview, all 750 targeted genes were included in the scatter plot analysis (Supplementary Fig. 4b–d).

B16-F10 cells [2] = experiment: Proteomics by mass spectrometry; format: cell-based, murine
Method: After overnight incubation, the culture media were replaced with fresh media (DMEM + 10% FBS) supplemented with 0.03 ng ml^−1 of recombinant mouse IFNγ (R&D Systems, #485-MI-100). After 24 h treatment, the cells were trypsinized, collected and washed twice with 0.5 ml PBS. The cell pellets collected from three independent experiments on separate day were lysed in 100 µl of lysis buffer containing 4% sodium dodecyl sulfate, 50 mM Tris–HCl pH 7.5, 50 µg ml^−1 of DNase (Roche, #10104159001), 50 µg ml^−1 of RNase (Roche, #10109169001) and Halt protease inhibitor cocktail (Thermo Scientific, #78430) on ice for 30 min followed by 65 °C for 30 min. Lysates were clarified by centrifugation at 16,000 g at 10 °C for 30 min. Protein content was re-extracted from the pellet with 50 µl of lysis buffer, sonicated with a single burst using a probe sonicator and heated at 95 °C for 10 min before centrifugation at 16,000 g at 10 °C for 15 min. Lysates from first and second extractions were pooled. Protein concentration was determined using BCA protein assay kit (Pierce, # 23225). Detergent removal and protein digestion were performed in centrifugal suspension trap columns (Protifi, C02-micro) according to the manufacturer’s instructions. Briefly, 80 µg protein extract from each sample was reduced with 50 mM dithiothreitol (Sigma, #43815) at 95 °C for 10 min and then alkylated with 100 mM iodoacetamide (Sigma, I2512) in the dark at ambient temperature for 30 min. The samples were acidified with 1.2% of phosphoric acid and mixed well with washing buffer consisting of 90% methanol and 100 mM ammonium bicarbonate. The samples were transferred to the suspension trap columns and centrifuged at 4000 g for 30 s. The columns were washed 3 times with washing buffer. Proteins trapped in the suspension bed were digested in 50 mM ammonium bicarbonate with trypsin and endoproteinase Lys-C (Promega, V5073) at enzyme to protein ratio 1:25 in a 47 °C waterbath for 2 h. Peptides were eluted firstly with 50 mM ammonium bicarbonate, then with 0.2% formic acid and lastly with 50% acetonitrile and 0.2% formic acid. The eluates were pooled and vacuum dried completely. Dried peptides were reconstituted with 0.1% formic acid in water, followed by injecting 4 µg for mass spectrometry analysis. Peptides were loaded on a reverse phase EASY-Spray column (50 cm × 75 μm inner diameter) operated using Easy-nLC 1200 (Thermo Fisher Scientific) coupled online to a Q-Exactive HF-X mass spectrometer (Thermo Fisher Scientific). Peptides were separated using a 120 min linear gradient at a flow rate of 300 nL min^−1. The Q-Exactive was operated in ‘top-10’ data-dependent acquisition (DDA) mode with full scan acquired at a resolution of 120,000 (scan range 200–1800 m/z) with an automatic gain control (AGC) target of 3e6. The top ten most abundant ions from the full scan were isolated with an isolation width of 0.7 m/z and fragmented by higher energy collisional dissociation (HCD) with normalized collision energy (NCE) of 27. MS/MS scan was acquired at a resolution of 30,000 with an AGC target of 1e5. The default charge state was set at 2 and dynamic exclusion was enabled for 10 s. Maximum ion injection time for full scan and MS/MS scan were 100 ms and 105 ms respectively.
DDA raw files were processed with Proteome Discoverer 2.4 using Sequest HT search engine where mass spectrometric data was searched against SwissProt TaxID 10090 mouse database (v2017-10-25). Percolator was used to validate search results based on the concatenated mode where only the best scoring PSMs (target/decoy) were considered. Trypsin was specified as the enzyme, cleaving after all lysine and arginine residues and allowing up to two missed cleavages. Carbamidomethylation of cysteines was set as fixed modification while variable modifications included oxidation of methionine, acetylation of N-terminus, N-terminal loss of methionine and N-terminal loss of metionine along with the addition of an acetyl group. […]

Substance | Phosphorylation of Tyr701-STAT1 (MCF7 cells) | Induction of interferon-stimulated genes (B16-F10 cells [1]) | Log2(FC) (B16-F10 cells [2]; B2M (Fig. 2g)) | Log2(FC) (B16-F10 cells [2]; BST2 (Fig. 2g)) | Log2(FC) (B16-F10 cells [2]; ERAP1 (Fig. 2g)) | Log2(FC) (B16-F10 cells [2]; GBP2 (Fig. 2g)) | Log2(FC) (B16-F10 cells [2]; H2-D1 (Fig. 2g)) | Log2(FC) (B16-F10 cells [2]; IFI35 (Fig. 2g)) | Log2(FC) (B16-F10 cells [2]; IRGM1 (Fig. 2g)) | Log2(FC) (B16-F10 cells [2]; MOV10 (Fig. 2g)) | Log2(FC) (B16-F10 cells [2]; PSME1 (Fig. 2g)) | Log2(FC) (B16-F10 cells [2]; PSME2 (Fig. 2g)) | Log2(FC) (B16-F10 cells [2]; STAT1 (Fig. 2g)) | Log2(FC) (B16-F10 cells [2]; STAT3 (Fig. 2g)) | Log2(FC) (B16-F10 cells [2]; TGTP1/TGTP2 (Fig. 2g))
IFNγ | increased the cells’ response to IFNγ in a dose-dependent manner | enhanced response to IFNγ treatment |  |  |  |  |  |  |  |  |  |  |  |  | 
gStub1 #1 (guide GCATTGCTAAGAAGAAGCGC; chemistry not given here) |  |  | 2.591 | 2.607 | 2.501 | 4.916 | 1.708 | 2.548 | 4.787 | 1.934 | 1.818 | 2.036 | 2.521 | 1.035 | 7.1
